Test results published in ChEMBL document CHEMBL5360649, “Potential Broad-Spectrum Antimicrobial, Wound Healing, and Disinfectant Cationic Peptide Crafted from Snake Venom” (J Med Chem, 2023).
Activity calls are given as the source filed them. No cut-off for these calls is given here.

What was measured:
Lipopolysaccharide (LPS) = test: Displacement of BODIPY-TR-cadaverin from Escherichia coli O111:B4 Lipopolysaccharide assessed as increase in binding factor at 10 to 40 uM preincubated for 15 mins followed by BODIPY-TR-cadaverin addition and measured after 15 mins by fluorescence based analysis; conditions: dose 10-40 µM, time 30.0 min
[1] = Stability in human serum assessed as intact peptide remaining at 1 mM measured after 8 hrs by HPLC analysis; assay type: ADME, cell-free; conditions: read-out: Stability
Klebsiella pneumoniae [2] = test: Antibacterial activity against Klebsiella pneumoniae ATCC BAA-1705 assessed as inhibition of bacterial growth at 25 to 100 uM incubated overnight by spotting assay; assay type: functional, organism-based; conditions: dose 25-100 µM
Escherichia coli [3] = test: Bactericidal activity against Escherichia coli ATCC CRM-11229 assessed as reduction in bacterial growth incubated for 24 hrs by Mueller Hinton Agar based plate analysis; assay type: functional
[4] = Cytotoxicity against NMDF cells assessed as viable cells at 12.5 uM incubated for 24 hrs by MTT assay relative to control; assay type: toxicity, cell-based; conditions: mouse, read-out: Activity
[5] = Cytotoxicity against human MCF7 cells assessed as cell viability at 12.5 uM incubated for 24 hrs by MTT assay relative to control; assay type: toxicity, cell-based; conditions: read-out: Activity
U-937 = test: Immunomodulatory activity in human U-937 cells assessed as reduction in LPS-induced TNF-alpha expression level incubated for 24 hrs by radioimmunoprecipitation based dot-plot analysis; assay type: functional, cell-based; conditions: dose 5-10 µM
RAW264.7 = test: Antiinflammatory activity in mouse RAW264.7 cells assessed as increase in TGF-beta1 expression at 10 uM incubated for 24 hrs by radioimmunoprecipitation based dot-plot analysis; assay type: functional, cell-based
Staphylococcus aureus [6] = test: Antibacterial activity against methicillin resistant Staphylococcus aureus assessed as inhibition of bacterial growth incubated for 0.5 to 8.5 hrs by microtiter plate reader analysis; assay type: functional, organism-based; conditions: dose 1.25-40 µM, time 0.5-8.5 hrs
Pseudomonas aeruginosa [7] = test: Antibacterial activity against Pseudomonas aeruginosa assessed as inhibition of bacterial growth incubated for 0.5 to 8.5 hrs by microtiter plate reader analysis; assay type: functional, organism-based; conditions: dose 1.25-40 µM, time 0.5-8.5 hrs
Klebsiella pneumoniae [8] = test: Induction of morphological changes in carbapenem resistant Klebsiella pneumoniae ATCC BAA-1705 at MIC concentration incubated for 6 hrs by AFM analysis; assay type: functional, organism-based
Escherichia coli [9] = test: Induction of morphological changes in Escherichia coli assessed as cellular destruction at MIC concentration incubated for 6 hrs by AFM analysis; assay type: functional, organism-based
Pseudomonas aeruginosa [10] = test: Induction of morphological changes in Pseudomonas aeruginosa assessed as cellular destruction at MIC concentration incubated for 6 hrs by AFM analysis; assay type: functional, organism-based
Escherichia coli [11] = test: Induction of morphological changes in Escherichia coli assessed as decrease in legible cells at MIC concentration incubated for 6 hrs by AFM analysis; assay type: functional, organism-based
Klebsiella pneumoniae [12] = test: Induction of morphological changes in carbapenem resistant Klebsiella pneumoniae ATCC BAA-1705 assessed as inhibition of cell division by measuring filamented cells at MIC concentration incubated for 60 mins by SEM analysis; assay type: functional, organism-based
Cell membrane [13] = test: Induction of outer membrane permeabilization in Escherichia coli at 0.5 to 1 times of MIC incubated for 5 to 20 mins by fluorescence based NPN uptake assay; assay type: subcellular; conditions: time 5-20 min
Cell membrane [14] = test: Induction of inner membrane permeabilization in Pseudomonas aeruginosa assessed as increase in fluorescence at 0.5 to 1 times of MIC incubated for 60 mins by PI staining based fluorescence analysis; assay type: subcellular
Escherichia coli [15] = test: Antibacterial activity against Escherichia coli assessed as cell division block by measuring bacterial filamentation at 0.5 to 1 times of MIC incubated for 30 mins by SYTO9/PI staining based fluorescence microscopic analysis; assay type: functional, organism-based
Pseudomonas aeruginosa [16] = test: Antibacterial activity against Pseudomonas aeruginosa assessed as cell division block by measuring cellular elongation at 0.5 to 1 times of MIC incubated for 30 mins by SYTO9/PI staining based fluorescence microscopic analysis; assay type: functional, organism-based
Pseudomonas aeruginosa [17] = test: Antibiofilm activity against Pseudomonas aeruginosa assessed as biofilm eradication at 0.5 times of MIC incubated for 24 hrs by CV staining based analysis relative to control; assay type: functional
Klebsiella pneumoniae [18] = test: Antibiofilm activity against Klebsiella pneumoniae assessed as biofilm eradication at 1 times of MIC incubated for 24 hrs by CV staining based analysis relative to control; assay type: functional
Staphylococcus aureus [19] = test: Antibiofilm activity against methicillin-resistant Staphylococcus aureus assessed as biofilm eradication at 1 times of MIC incubated for 24 hrs by CV staining based analysis relative to control; assay type: functional
Klebsiella pneumoniae [20] = test: Antibiofilm activity against Klebsiella pneumoniae assessed as eradication of preformed biofilm at 0.5 times of MIC incubated for 24 hrs by CV staining based analysis relative to control; assay type: functional
Klebsiella pneumoniae [21] = test: Antibiofilm activity against Klebsiella pneumoniae assessed as clearance of preformed biofilm at 1 times of MIC incubated for 24 hrs by CV staining based analysis relative to control; assay type: functional
Pseudomonas aeruginosa [22] = test: Antibiofilm activity against Pseudomonas aeruginosa assessed as clearance of preformed biofilm at 0.5 times of MIC incubated for 24 hrs by CV staining based analysis relative to control; assay type: functional
Klebsiella pneumoniae [23] = test: Antibiofilm activity against Klebsiella pneumoniae in the presence of Na+; assay type: functional, organism-based
Staphylococcus aureus [24] = test: Antibiofilm activity against preformed biofilm in methicillin-resistant Staphylococcus aureus assessed as decrease in cell viability at MIC incubated overnight by MTT assay relative to control; assay type: functional
Klebsiella pneumoniae [25] = test: Antibiofilm activity against preformed biofilm in Klebsiella pneumoniae assessed as decrease in cell viability at MIC incubated overnight by MTT assay relative to control; assay type: functional
[26] = Induction of wound healing in surgically-induced Albino Wistar rat wound model assessed as decrease in mean open wound percentage at 10 uM measured after 11 days by photographic analysis (reference value: 32.25%); assay type: functional; set-up: scale not given: the % may be the effect or the level left; conditions: time 11 day
Rattus norvegicus [27] = organism: Rattus norvegicus; test: Induction of wound healing in surgically-induced Albino Wistar rat wound model inoculated with methicillin-resistant Staphylococcus aureus assessed as dense epithelial-tissue layers at 10 uM measured after 11 days by H&E staining based analysis; assay type: functional; conditions: time 11.0 day
Rattus norvegicus [28] = organism: Rattus norvegicus; test: Induction of wound healing in surgically-induced Albino Wistar rat wound model assessed as reduction in inflammatory cell infiltration at 10 uM measured after 11 days by H&E staining based analysis; assay type: functional; conditions: time 11.0 day
Rattus norvegicus [29] = organism: Rattus norvegicus; test: Induction of wound healing in surgically-induced Albino Wistar rat wound model inoculated with methicillin-resistant Staphylococcus aureus assessed as hair follicle formation at 10 uM measured after 11 days by H&E staining based analysis; assay type: functional; conditions: time 11.0 day
Rattus norvegicus [30] = organism: Rattus norvegicus; test: Induction of wound healing in surgically-induced Albino Wistar rat wound model assessed as densely packed epithelium containing keratinocytes at 10 uM measured after 11 days by H&E staining based analysis; assay type: functional; conditions: time 11.0 day
Rattus norvegicus [31] = organism: Rattus norvegicus; test: Induction of wound healing in surgically-induced Albino Wistar rat wound model inoculated with methicillin-resistant Staphylococcus aureus assessed as reduction in inflammatory signs at 10 uM measured after 11 days by H&E staining based analysis; assay type: functional; conditions: time 11.0 day
Pseudomonas aeruginosa [32] = test: Induction of resistance development in Pseudomonas aeruginosa assessed as change in MIC at 0.5 times of MIC incubated with compound for 12 hrs followed by replacement with fresh medium for 12 hrs and measured after 20 repeated cycles; assay type: functional, organism-based; conditions: time 240.0 hrs
Klebsiella pneumoniae [33] = test: Induction of resistance development in Klebsiella pneumoniae assessed as fold increase in MIC at 0.5 times of MIC incubated with compound for 12 hrs followed by replacement with fresh medium for 12 hrs and measured after 20 repeated cycles; assay type: functional; conditions: time 240 hrs

## H-FLPIIKWVKKFFWRWR-OH
Lipopolysaccharide (LPS)
  Activity: Active
[1]
  remaining at 8 h, 1000 µM: 61%
Klebsiella pneumoniae [2]
  Activity: Active
Escherichia coli [3]
  MBC: 4.5 µM
[4]
  viability at 24 h, 12.5 µM: > 85%
[5]
  viability at 24 h, 12.5 µM: 77%
U-937
  Activity: Dose-Dependent Effect
RAW264.7
  Activity: Active
Staphylococcus aureus [6]
  Activity: Dose-Dependent Effect
Pseudomonas aeruginosa [7]
  Activity: Dose-Dependent Effect
Klebsiella pneumoniae [8]
  Activity: Active
Escherichia coli [9]
  Activity: Active
Pseudomonas aeruginosa [10]
  Activity: Active
Escherichia coli [11]
  Activity: Active
Klebsiella pneumoniae [12]
  Activity: Active
Cell membrane [13]
  Activity: Active
Cell membrane [14]
  Activity: Active
Escherichia coli [15]
  Activity: Active
Pseudomonas aeruginosa [16]
  Activity: Active
Pseudomonas aeruginosa [17]
  Activity: ~50%
Klebsiella pneumoniae [18]
  Activity: <=78.28%
Staphylococcus aureus [19]
  Activity: <=87.6%
Klebsiella pneumoniae [20]
  Activity: ~56%
Klebsiella pneumoniae [21]
  Activity: ~70%
Pseudomonas aeruginosa [22]
  Activity: ~53%
Klebsiella pneumoniae [23]
  Activity: Active
Staphylococcus aureus [24]
  Activity: 33.89%
Klebsiella pneumoniae [25]
  Activity: 51.78%
[26]
  Activity: 5.6%
Rattus norvegicus [27]
  Activity: Active
Rattus norvegicus [28]
  Activity: Active
Rattus norvegicus [29]
  Activity: Active
Rattus norvegicus [30]
  Activity: Active
Rattus norvegicus [31]
  Activity: Active
Pseudomonas aeruginosa [32]
  Activity: inactive
Klebsiella pneumoniae [33]
  fold change (FC): 2
